Assay results: patent US7666685B2, “Screening method for identification of compounds suitable for treatment of oral cavity malodor associated with consumption of garlic” (Wm. Wrigley Jr. Company, priority 2005, dated 2010)
“And” between values parts separate entries of the source, which are not always exact repeats. Equal entries are not always repeated.

How the values were obtained:
[1] = Sensory analysis: ten panelists rate the odor intensity of the raw macerated garlic solution with added active; settings: for Odor Intensity (0–100): individual panelists, 0=no odor, 100=very strong odor; for Odor Intensity (0–100), Mean: mean of N = 10 panelists
Procedure: Sensory analysis of the solutions utilized for analytical analyses of the raw garlic described above was conducted by ten panelists who evaluated the odor intensity of the model solution (raw macerated garlic) with and without the different levels of added active. Odor intensity was assessed utilizing a 0-100 point scale ballot with 0=no odor and 100=very strong odor.

[2] = In vitro dose response: SPME GC/MS headspace analysis of raw macerated garlic solution treated with active; settings: for GC/MS Peak Area (diallyl disulfide headspace): individual runs; for GC/MS Peak Area (diallyl disulfide headspace), Mean: mean of 3 runs; for reduction of diallyl disulfide headspace concentration: vs control garlic solution
Procedure: A model solution containing raw chopped garlic (20 g) dispersed in water (200 ml) was prepared by blending in a Waring commercial blender (Waring Commercial, Torrington, Conn.) at low power for 30 seconds and at high power for 30 seconds. The resulting solution was homogeneous with no visible garlic particles present.
A portion of the raw, macerated garlic solution (5 g) was treated with different levels of potential ameliorating actives and the headspace was extracted and analyzed (as described in greater detail below) to determine the effect of the potential actives on the headspace concentration of compounds contributing to oral cavity malodor associated with consumption of garlic.
Headspace of a vessel containing a portion of the garlic solution (5 ml) treated with a potential active was extracted for 60 minutes utilizing solid phase microextraction (SPME) with a 75 μm Carboxen-polydimethyl siloxane fiber (Supelco, Bellefonte, Pa.).
The SPME fiber assembly was injected into an Agilent 6890 gas chromatograph (GC)/mass spectrometer (MS) modified for multidimensional analyses and equipped with a sniff port and Aroma Trax software (Microanalytics, Round Rock, Tex.). Fibers remained in the GC injection port for five minutes following injection.
The GC/MS operating parameters included a He carrier gas flow rate of 6.5 ml/min, split mode (2:1) and the injector set at 250° C. Column 1 was 12 meter, 0.53 mm I.D. with a methyl silica stationary phase. Column 2 was a 25 meter, 0.53 mm DB-5 capillary column. The oven was programmed to hold at 40° C. for 3 minutes and to heat to 220° C. at a rate of 7° C./min and hold at 220° C. for 20 minutes. The MS operated in Electron Impact Mode (E.I.) at 70 eV.
A model solution containing raw chopped garlic dispersed in water was prepared as described in Example 1. […] For comparison purposes, the diallyl disulfide content of the headspace of a control model solution (i.e., no menthone added) was also analyzed.

For `CC(C)[C@@H]1CC[C@@H](C)CC1=O` [menthone], the “Odor Intensity (0–100)” value ([1]; 0.33 mg/g) was 1 (2×) and 6 and 7 (4×) and 5 and 8 and 3, the “Odor Intensity (0–100), Mean” value ([1]; 0.33 mg/g) was 5.2 and the “Odor Intensity (0–100)” value ([1]; 1 mg/g) was 1 and 2 (6×) and 4 (2×) and 6. The “Odor Intensity (0–100), Mean” value ([1]; 1 mg/g) was 2.7, the “Odor Intensity (0–100)” value ([1]; 3 mg/g) was 2 (2×) and 0 (2×) and 4 (2×) and 3 (2×) and 1 (2×) and the “Odor Intensity (0–100), Mean” value ([1]; 3 mg/g) was 2. For the same compound, the “reduction of odor of raw macerated garlic in water (sensory)” value ([1]; active concentration 0.3 mg/g) was 48%, the “reduction of odor of raw macerated garlic in water (sensory)” value ([1]; active concentration 3 mg/g) was 80% and the “GC/MS Peak Area (diallyl disulfide headspace)” value ([2]; 0.3 mg/g garlic solution) was 46610414 and 58241626 and 60764744. The “GC/MS Peak Area (diallyl disulfide headspace), Mean” value (“GC/MS Peak Area … Mean” below) ([2]; 0.3 mg/g garlic solution) was 55205595, the “GC/MS Peak Area (diallyl disulfide headspace)” value ([2]; 1 mg/g garlic solution) was 20835556 and 16829160 and 16827232 and the “GC/MS Peak Area … Mean” value ([2]; 1 mg/g garlic solution) was 18163983. For the same compound, the “GC/MS Peak Area (diallyl disulfide headspace)” value ([2]; 3 mg/g garlic solution) was 6746448 and 4757863 and 5868573, the “GC/MS Peak Area … Mean” value ([2]; 3 mg/g garlic solution) was 5790961.3 and the “less diallyl disulfide in headspace than control model solution” value ([2]; Example 3: 1.63 mg in 2.5 g model solution, at each headspace analysis interval (5 hour intervals)) was “at least 50%”.
With caryophyllene the “Odor Intensity (0–100)” value ([1]; 0.1 mg/g) was 5 (3×) and 6 (2×) and 2 and 4 (3×) and 7, the “Odor Intensity (0–100), Mean” value ([1]; 0.1 mg/g) was 4.8 and the “Odor Intensity (0–100)” value ([1]; 0.2 mg/g) was 4 (2×) and 5 (3×) and 9 (2×) and 8 and 3 (2×). For the same compound, the “Odor Intensity (0–100), Mean” value ([1]; 0.2 mg/g) was 5.5, the “Odor Intensity (0–100)” value ([1]; 0.4 mg/g) was 2 and 5 and 3 (3×) and 4 (3×) and 0 and 1 and the “Odor Intensity (0–100), Mean” value ([1]; 0.4 mg/g) was 2.9. For the same compound, the “decrease of odor intensity (sensory)” value ([1]; active concentration 0.1 mg/g) was 52%, the “decrease of odor intensity (sensory)” value ([1]; active concentration 0.4 mg/g) was 71% and the “GC/MS Peak Area (diallyl disulfide headspace)” value ([2]; 0.1 mg/g garlic solution) was 52155883 and 49803124 and 56316479. The “GC/MS Peak Area … Mean” value ([2]; 0.1 mg/g garlic solution) was 52758495, the “GC/MS Peak Area (diallyl disulfide headspace)” value ([2]; 0.24 mg/g garlic solution) was 67591321 and 69400527 and 61729644 and the “GC/MS Peak Area … Mean” value ([2]; 0.24 mg/g garlic solution) was 66240497. The “GC/MS Peak Area (diallyl disulfide headspace)” value ([2]; 0.4 mg/g garlic solution) was 93422075 and 91167385 and 94368797, the “GC/MS Peak Area … Mean” value ([2]; 0.4 mg/g garlic solution) was 92986086 and the “reduction of diallyl disulfide headspace concentration” value ([2]; active concentration 0.1 mg/g) was 34%. For the same compound, the “reduction of diallyl disulfide headspace concentration” value ([2]; active concentration 0.4 mg/g) was 63%.
